We go through three molecules from ChEMBL document CHEMBL1201862, “PubChem BioAssay data set” (2004).

The source made the active and inactive calls. Rule as the data show it, for most assays here: actives have a measured IC50 and inactives only a lower limit.

Common to all, as to format: functional
In assay [1] the target is DNA (cytosine-5)-methyltransferase 1 (Homo sapiens, UniProt P26358). As to the kind of experiment: inhibition of DNA methylation by DNMT1 – biochemical, fluorescent molecular beacon, confirmation (AID 602386).
Sequence of DNA (cytosine-5)-methyltransferase 1 (P26358 whole entry): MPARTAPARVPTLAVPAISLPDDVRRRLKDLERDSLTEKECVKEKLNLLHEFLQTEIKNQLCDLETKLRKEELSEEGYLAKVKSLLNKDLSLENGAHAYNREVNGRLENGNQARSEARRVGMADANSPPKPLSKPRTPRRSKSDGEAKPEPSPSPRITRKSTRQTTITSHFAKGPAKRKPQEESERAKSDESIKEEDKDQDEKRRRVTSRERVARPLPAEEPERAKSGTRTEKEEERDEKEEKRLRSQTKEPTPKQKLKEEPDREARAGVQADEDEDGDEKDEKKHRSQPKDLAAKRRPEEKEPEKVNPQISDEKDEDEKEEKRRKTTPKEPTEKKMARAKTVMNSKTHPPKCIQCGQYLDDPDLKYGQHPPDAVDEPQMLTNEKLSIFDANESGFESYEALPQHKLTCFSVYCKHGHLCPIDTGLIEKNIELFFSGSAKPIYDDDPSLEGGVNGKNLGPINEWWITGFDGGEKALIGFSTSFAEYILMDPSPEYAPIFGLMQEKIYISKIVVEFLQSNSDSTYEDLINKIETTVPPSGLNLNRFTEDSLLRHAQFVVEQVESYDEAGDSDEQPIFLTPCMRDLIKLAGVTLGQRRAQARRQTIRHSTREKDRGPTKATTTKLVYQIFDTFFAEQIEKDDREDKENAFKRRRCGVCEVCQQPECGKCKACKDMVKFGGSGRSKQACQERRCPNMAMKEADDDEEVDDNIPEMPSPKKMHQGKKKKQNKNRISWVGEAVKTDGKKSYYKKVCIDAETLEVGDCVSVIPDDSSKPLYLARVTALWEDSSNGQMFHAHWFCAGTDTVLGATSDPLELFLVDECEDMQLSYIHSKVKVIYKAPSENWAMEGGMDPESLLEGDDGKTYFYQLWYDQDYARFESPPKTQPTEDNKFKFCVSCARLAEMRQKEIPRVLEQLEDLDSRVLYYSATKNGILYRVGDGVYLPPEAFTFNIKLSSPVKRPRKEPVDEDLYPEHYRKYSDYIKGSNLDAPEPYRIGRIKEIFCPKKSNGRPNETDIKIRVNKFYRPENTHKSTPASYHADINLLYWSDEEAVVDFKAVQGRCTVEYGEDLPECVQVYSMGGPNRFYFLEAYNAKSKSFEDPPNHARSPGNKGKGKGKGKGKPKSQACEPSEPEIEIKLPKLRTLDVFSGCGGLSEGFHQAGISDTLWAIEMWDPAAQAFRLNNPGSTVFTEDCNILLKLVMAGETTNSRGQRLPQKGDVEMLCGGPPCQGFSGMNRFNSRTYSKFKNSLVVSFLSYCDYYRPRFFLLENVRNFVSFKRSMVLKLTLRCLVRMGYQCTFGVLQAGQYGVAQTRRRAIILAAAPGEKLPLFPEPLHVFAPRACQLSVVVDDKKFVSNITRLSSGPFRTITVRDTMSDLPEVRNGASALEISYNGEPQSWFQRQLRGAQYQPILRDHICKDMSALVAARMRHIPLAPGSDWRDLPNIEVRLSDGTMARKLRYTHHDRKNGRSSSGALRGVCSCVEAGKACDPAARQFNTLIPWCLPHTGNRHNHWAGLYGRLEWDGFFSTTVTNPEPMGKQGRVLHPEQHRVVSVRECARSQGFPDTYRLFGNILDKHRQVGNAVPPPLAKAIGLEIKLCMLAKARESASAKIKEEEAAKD
The target of assay [2] is T1, Apoptotic protease-activating factor 1 (Homo sapiens, UniProt O14727).
T1 sequence (O14727 whole entry): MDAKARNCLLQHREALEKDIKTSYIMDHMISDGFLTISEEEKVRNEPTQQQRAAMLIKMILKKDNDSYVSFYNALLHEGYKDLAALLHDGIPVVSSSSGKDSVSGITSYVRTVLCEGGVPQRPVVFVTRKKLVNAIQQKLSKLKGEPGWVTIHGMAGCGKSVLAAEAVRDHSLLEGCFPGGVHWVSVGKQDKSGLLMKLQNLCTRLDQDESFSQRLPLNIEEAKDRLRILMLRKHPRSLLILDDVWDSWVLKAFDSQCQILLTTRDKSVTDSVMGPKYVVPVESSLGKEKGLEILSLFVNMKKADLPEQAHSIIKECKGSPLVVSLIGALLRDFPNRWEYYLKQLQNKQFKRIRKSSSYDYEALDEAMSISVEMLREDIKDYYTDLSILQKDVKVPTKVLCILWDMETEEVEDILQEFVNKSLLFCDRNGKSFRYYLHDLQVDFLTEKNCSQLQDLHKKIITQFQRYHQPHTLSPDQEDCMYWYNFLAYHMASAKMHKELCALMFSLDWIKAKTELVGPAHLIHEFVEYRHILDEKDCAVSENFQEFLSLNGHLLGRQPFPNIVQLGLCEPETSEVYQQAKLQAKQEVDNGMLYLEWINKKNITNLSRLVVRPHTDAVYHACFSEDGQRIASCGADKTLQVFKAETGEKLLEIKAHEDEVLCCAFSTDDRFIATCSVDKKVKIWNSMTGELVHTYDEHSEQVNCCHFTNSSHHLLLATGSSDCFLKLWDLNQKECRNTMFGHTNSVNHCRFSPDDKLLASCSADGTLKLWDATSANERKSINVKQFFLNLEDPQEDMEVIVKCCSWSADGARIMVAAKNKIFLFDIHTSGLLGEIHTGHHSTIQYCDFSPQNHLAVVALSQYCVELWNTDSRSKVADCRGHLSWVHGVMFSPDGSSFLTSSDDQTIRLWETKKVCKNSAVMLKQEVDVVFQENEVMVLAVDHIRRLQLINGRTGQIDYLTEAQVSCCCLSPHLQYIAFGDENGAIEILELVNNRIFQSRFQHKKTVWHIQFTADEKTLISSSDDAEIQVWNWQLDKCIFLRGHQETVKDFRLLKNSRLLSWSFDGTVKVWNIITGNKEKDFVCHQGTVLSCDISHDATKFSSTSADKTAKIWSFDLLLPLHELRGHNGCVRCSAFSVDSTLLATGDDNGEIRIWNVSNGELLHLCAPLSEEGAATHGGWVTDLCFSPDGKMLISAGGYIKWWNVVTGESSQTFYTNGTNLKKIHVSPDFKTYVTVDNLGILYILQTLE

For another assay, the system named is BJ. As to the kind of experiment: growth inhibition of engineered Ras-driven BJ cells – cell-based, alamar blue fluorescence, cherrypicked samples, dose response (AID 2631).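 Also: confirmatory dose-response assay in RAS-dependent BJ fibroblasts engineered with TERT, LT and ST, with cytotoxicity read by fluorescence.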 The settings on record: Homo sapiens. (In general: The colour change of resazurin is a common sign of viable cells or microbes.)

Broadly, the IC50 is the concentration needed to halve the response being measured. `NS(=O)(=O)c1ccc(NC(=O)COC(=O)c2ccc([N+](=O)[O-])s2)cc1`: the IC50 in assay [1] was 25.1 µM (active).
For `CCCCNc1cc(NC(C)=O)cc2cc(OC)c(OC)cc12`, in assay [2], the IC50 was 3.62 µM (active).
One may read the EC50 as the concentration needed to bring the measured effect to its halfway point. Take `O=C(Cc1ccc([N+](=O)[O-])cc1)N/N=C/c1ccc([N+](=O)[O-])o1`: the EC50 with BJ was 7.85 µM (active).
